Test results: patent US20130273557A1 (priority 2010, published 2013)
“Also recorded” adds a separate entry of the source.

What was measured:
[1] = system: citrate synthase; details: dexpramipexole 30 μM
Procedure: Primary rat cortical cultures were incubated with digitonin (10 μg/ml) and rotenone (100 nM) for 45 minutes in MAS1 buffer prior to measurement of oxygen consumption rate (OCR) by a Seahorse® flux analyzer. […] Data are shown as a percentage of the control group OCR±SEM.

[2] = system: digitonin-treated cortical neurons; assay: ATP production following ADP pulse in digitonin-treated cortical neurons; type: cell-based, rat; details: dexpramipexole 30 μM
[3] = target: ATP synthesis in liver mitochondria (Rattus norvegicus, UniProt P19511+Q06647)
Procedure: Synthesis of ATP in liver mitochondria was measured using an ATP determination kit (A-22066; Molecular Probes, Eugene, Oreg.), supplemented with 1 mM sodium succinate and 500 nM rotenone. Assays were performed in 96-well microplates (Becton Dickinson, Franklin Lakes, N.J.) in a final volume of […] consisting of 10 μL mitochondria (0.1 mg protein/ml final concentration), 10 μL of drug or control buffer and 90 μL ATP-determination reaction mixture. After a 5 min. recording of basal luciferase-generated luminescence, ADP (final concentration, 10 μM, 10 μL) was injected into each well. Luminescence was recorded every 6 sec for 15-20 min.

[4] = system: leak conductance of urea-treated SMVs; assay: Patch clamp recordings of urea-treated SMVs (F1 removed); type: biochemical, rat
Procedure: F1 subunits were removed from SMVs by adapting previously-established methods. 60 mg SMV's/1 mL IB was treated with 1 mL of […] for 5 min. on ice, then centrifuged at 21000×g for 10 min. The pellet was washed 3× in IB (centrifugation at 21000×g for 10 min) and stored in IB.
(§1) Giga-ohm seals were formed on SMVs using pipettes and solutions as above. Peak membrane conductance was measured as described above.

[5] = system: single cultured hippocampal neurons; details: acute application of 10 μM, after 1-5 min
Procedure: Oxygen uptake was measured in single hippocampal neurons in culture (DIV 14-17). A […] (tip diameter) oxygen-sensing electrode oscillated 10 μm close-to and away-from the cell every 3 sec. The difference in current detected at the two positions was translated into oxygen flux.

[6] = target: human F1FO ATP synthase OSCP subunit (Homo sapiens, UniProt P48047); details: co-incubation in 'cold' dexpramipexole (100 μM)
From the text: The human ORF constructs for alpha, beta, b, c, delta, d, epsilon, gamma and OSCP ATP synthase subunits, tagged with Myc and DDK (Flag) tags were from Origene Technologies (Rockville, Md.). 293T cells were transfected with the above constructs, using the calcium phosphate method (Li et al. 2008). On day-3 post transfection, the cells were lysed and the fusion proteins were bound to the EZview™ Red ANTI-FLAG® M2 Affinity Gel (Sigma, USA), according to the manufacturer's protocol. The proteins were eluted from a portion of the samples and presence of the proteins on the beads was verified by immunoblot analysis, using the mouse anti-Myc antibodyies (Cell signaling Technology). […] They were spun at 3000×g in 0.45 um Spin-X centrifugal devices (Corning Life Sciences, USA) for 10 min. The samples were washed three times with PBS and the filter units were incubated in Ultima Gold scintillation liquid (Perkin Elmer Health Sciences, Inc.) overnight. Samples were counted for ^14C, using a Beckman Coulter LS 5000TD scintillation counter.

[7] = system: subjects with ALS; details: double-blind, placebo- and low-dose-controlled 2-part Phase 2; cited from earlier work
[8] = doses that should produce pharmacodynamically effective CNS concentrations; cited from earlier work
[9] = target: T1, complex V (F1FO ATPase) (Rattus norvegicus, UniProt P19511+Q06647); assay: ATP hydrolysis in SMVs, luciferin-luciferase assay; type: biochemical; set-up: from tissue; host or cells: rat brain mitochondria, lubrol-insoluble submitochondrial vesicles (SMVs)
From the text: 3 wells were used for each condition, repeated at least 3× on different SMV isolations.

[10] = system: SH-SY5Y neuroblastoma cells; assay: PSI-induced cell death in SH-SY5Y cells (CellTiter-Blue)
Procedure: Data shown represent mean±SEM. […] Bar graphs represent normalized mean±SEM. Cell viability was measured by CellTiter-Blue®; n=41-98 wells/condition.
Undifferentiated SH-SY5Y human neuroblastoma cells (ATCC, Manasses, Va.) were maintained in humidified 5% CO2 in 1:1 Ham's F12 nutrient mixture with Glutamax® and Minimal Essential Medium with L-glutamine (MEM-Alpha), 10% FBS, and 1% penicillin/streptomycin (Gibco® Invitrogen Corp., Carlsbad, Calif.).
Cellular viability was measured using CellTiter-Blue® (Promega Corp., Madison, Wis.) in black-walled optical imaging multiwell plates, and cellular ATP was measured using the CellTiter-Glo® (Promega Corp., Madison, Wis.) luminescence assay in opaque-walled multiwell plates according to the manufacturer's protocol.

[11] = target: leak conductance of SMVs enriched in F1FO ATP synthase (complex V) (Rattus norvegicus, UniProt P19511+Q06647); assay: biochemical
Procedure: Reagents were rapidly perfused into the recording chamber.
as §1

[12] = target: T1, complex V (F1FO ATPase); details: concentration-dependent
Procedure: ATP hydrolysis was also measured using an NADH-ATP-synthase kit (Mitosciences, USA; catalog #MS541), according to the manufacturer's protocol with modifications. SMVs were added 20 min. prior to addition of the reagent mix. The rate of change in […] over time as NADH was oxidized was measured as a decrease in absorbance at 340 nm.

[13] = system: human neuroblastoma SH-SY5Y cells; details: MPP^+ or PSI exposure; cited from earlier work

Chain of human F1FO ATP synthase OSCP subunit (P48047 24-213): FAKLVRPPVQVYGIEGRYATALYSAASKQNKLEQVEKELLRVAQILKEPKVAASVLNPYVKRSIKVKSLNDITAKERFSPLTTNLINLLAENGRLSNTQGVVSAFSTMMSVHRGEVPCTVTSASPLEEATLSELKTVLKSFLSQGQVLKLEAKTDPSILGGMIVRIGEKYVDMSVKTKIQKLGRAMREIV
Chain of ATP synthesis in liver mitochondria (P19511 43-256): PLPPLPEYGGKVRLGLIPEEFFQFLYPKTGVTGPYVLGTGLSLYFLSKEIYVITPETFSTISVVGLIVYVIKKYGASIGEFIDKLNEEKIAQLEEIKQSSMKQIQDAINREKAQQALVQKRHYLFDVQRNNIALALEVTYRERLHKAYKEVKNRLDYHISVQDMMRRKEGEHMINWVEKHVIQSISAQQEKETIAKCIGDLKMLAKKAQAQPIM
Chain of ATP synthesis in liver mitochondria (Q06647 24-213): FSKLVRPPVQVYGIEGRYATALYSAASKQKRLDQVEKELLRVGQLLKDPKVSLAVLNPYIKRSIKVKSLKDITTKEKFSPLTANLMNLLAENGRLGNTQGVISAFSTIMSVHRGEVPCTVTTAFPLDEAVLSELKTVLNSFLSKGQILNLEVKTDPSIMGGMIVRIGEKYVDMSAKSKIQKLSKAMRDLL
Chain of ATP synthesis in liver mitochondria (P10719 47-529 partner): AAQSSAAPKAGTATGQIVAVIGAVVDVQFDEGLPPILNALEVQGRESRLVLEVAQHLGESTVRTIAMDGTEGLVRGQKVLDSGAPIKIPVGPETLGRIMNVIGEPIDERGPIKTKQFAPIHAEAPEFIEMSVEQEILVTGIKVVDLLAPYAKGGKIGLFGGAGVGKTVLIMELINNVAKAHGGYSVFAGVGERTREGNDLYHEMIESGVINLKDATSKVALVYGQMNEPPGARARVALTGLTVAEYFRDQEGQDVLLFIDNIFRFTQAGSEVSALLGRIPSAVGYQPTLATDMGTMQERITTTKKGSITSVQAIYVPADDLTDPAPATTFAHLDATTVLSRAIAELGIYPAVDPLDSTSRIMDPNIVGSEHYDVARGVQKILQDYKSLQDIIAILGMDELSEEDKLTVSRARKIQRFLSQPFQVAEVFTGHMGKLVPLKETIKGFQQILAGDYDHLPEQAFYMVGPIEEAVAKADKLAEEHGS
Chain of ATP synthesis in liver mitochondria (P15999 44-553 partner): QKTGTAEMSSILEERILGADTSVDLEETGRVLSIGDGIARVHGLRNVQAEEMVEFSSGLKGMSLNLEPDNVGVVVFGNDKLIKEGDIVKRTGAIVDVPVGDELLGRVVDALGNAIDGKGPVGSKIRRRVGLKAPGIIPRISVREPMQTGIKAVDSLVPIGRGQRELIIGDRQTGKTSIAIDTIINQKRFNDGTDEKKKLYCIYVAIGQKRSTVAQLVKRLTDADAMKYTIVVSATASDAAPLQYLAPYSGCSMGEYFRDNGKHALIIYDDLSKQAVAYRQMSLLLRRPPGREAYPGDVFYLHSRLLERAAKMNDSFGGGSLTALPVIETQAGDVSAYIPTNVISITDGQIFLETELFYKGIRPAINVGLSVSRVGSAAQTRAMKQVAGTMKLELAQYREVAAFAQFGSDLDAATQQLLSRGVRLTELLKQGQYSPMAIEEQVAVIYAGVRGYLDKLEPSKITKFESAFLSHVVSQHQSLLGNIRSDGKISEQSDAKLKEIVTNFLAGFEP
Chain of ATP synthesis in liver mitochondria (P35435 whole entry partner): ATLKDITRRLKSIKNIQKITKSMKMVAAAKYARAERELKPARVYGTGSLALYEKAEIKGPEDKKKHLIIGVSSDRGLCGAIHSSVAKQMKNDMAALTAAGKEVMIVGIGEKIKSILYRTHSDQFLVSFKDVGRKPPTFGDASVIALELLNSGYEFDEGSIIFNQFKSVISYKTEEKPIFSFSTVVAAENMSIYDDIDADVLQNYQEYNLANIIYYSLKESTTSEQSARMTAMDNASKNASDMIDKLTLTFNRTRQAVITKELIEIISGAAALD

For `CCCN[C@@H]1CCc2nc(N)sc2C1` [dexpramipexole, (6R)-4,5,6,7-tetrahydro-N-6-propyl-2,6-benzothiazole-diamine], the “levels of citrate synthase” value [1] was “unchanged”, the “initial slope of ATP synthesis following an ADP pulse” value [2] was “unchanged” and the “maximal ATP levels” value [2] was “unchanged”. The “Hill slope of CRC” value [3] was under 1, the “leak conductance after removal of F1” value [4] was “no longer inhibited the conductance” and the “decrease in average oxygen flux” value [5] was about 16%. For the same molecule, the “competition of ^14C-dexpramipexole binding to OSCP subunit” value [6] was “significantly reduced binding”, the trends in efficacy [7] was “reduction of functional decline and decreased mortality” and the safety and tolerability [8] was “safe and well-tolerated”. The EC50 [9] was 1630 nM, the cytoprotective concentrations [10] was at least 10 µM and the “protection against PSI-induced cell death” value ([10]; pretreatment with dexpramipexole) was “protective; also recorded: inhibited PSI-induced cell death in a concentration-dependent manner”. For the same molecule, the EC50 [11] was 111 nM, the “currents in SMVs” value ([11]; high [Ca^2+], 2 μM dexpramipexole, 1.0 μM CSA) was “inhibited” and the “ATP hydrolysis (change in NADH signal)” value [12] was “significantly enhanced ATP hydrolysis”. For the same molecule, the in vitro cytoprotection [13] was “significant concentration-dependent in vitro cytoprotection”.
